Test results published in patent publication US9630963B2, “Quinolone derivatives as fibroblast growth factor inhibitors” (Principia Biopharma, Inc., priority 2013, dated 2017).

Legend:
human recombinant FGFR1 = human recombinant FGFR1 (Homo sapiens, UniProt P11362); assay: FGFR family enzymatic activity assay (Caliper-based kinase assay), FGFR1; assay type: biochemical; settings: FGFR1 0.5 nM, ATP 100 μM, peptide substrate 1 μM, room temperature 3 h
Excerpt: (§1) A Caliper-based kinase assay (Caliper Life Sciences, Hopkinton, Mass.) was used to measure inhibition of FGFR family (FGFR1, FGFR2, FGFR3, FGFR4) kinase activity of a compound of Formula (I′) or (I). […] This value is presented as the IC50.

SNU-16 cells = assay: Inhibition of FGFR2-dependent cell growth (Cell-titer Glo); assay type: cell-based; settings: Homo sapiens, SNU16 cells, 72 hrs incubation, cell viability by Cell-titer Glo
Procedure: The cell-based effects of FGFR inhibitors were determined by measuring inhibition of FGFR-dependent cell line growth. […] Percent inhibition of cell growth was calculated as a percentage of untreated cell viability. The percent inhibition was plotted as a function of log compound concentration. The IC50 was then calculated for each compound using Prism software from GraphPad.

human recombinant FGFR2 = human recombinant FGFR2 (Homo sapiens, UniProt P21802); assay: FGFR family enzymatic activity assay (Caliper-based kinase assay), FGFR2; assay type: biochemical; settings: FGFR2 0.1 nM, ATP 75 μM, peptide substrate 1 μM, room temperature 3 h
Excerpt: as §1

human recombinant FGFR4 = human recombinant FGFR4 (Homo sapiens, UniProt P22455); assay: FGFR family enzymatic activity assay (Caliper-based kinase assay), FGFR4; assay type: biochemical; settings: FGFR4 2 nM, ATP 250 μM, peptide substrate 1 μM, room temperature 3 h
Excerpt: as §1

human recombinant FGFR3 = human recombinant FGFR3 (Homo sapiens, UniProt P22607); assay: FGFR family enzymatic activity assay (Caliper-based kinase assay), FGFR3; assay type: biochemical; settings: FGFR3 0.9 nM, ATP 120 μM, peptide substrate 1 μM, room temperature 3 h
Excerpt: as §1

Sequence of human recombinant FGFR2 (P21802 22-821): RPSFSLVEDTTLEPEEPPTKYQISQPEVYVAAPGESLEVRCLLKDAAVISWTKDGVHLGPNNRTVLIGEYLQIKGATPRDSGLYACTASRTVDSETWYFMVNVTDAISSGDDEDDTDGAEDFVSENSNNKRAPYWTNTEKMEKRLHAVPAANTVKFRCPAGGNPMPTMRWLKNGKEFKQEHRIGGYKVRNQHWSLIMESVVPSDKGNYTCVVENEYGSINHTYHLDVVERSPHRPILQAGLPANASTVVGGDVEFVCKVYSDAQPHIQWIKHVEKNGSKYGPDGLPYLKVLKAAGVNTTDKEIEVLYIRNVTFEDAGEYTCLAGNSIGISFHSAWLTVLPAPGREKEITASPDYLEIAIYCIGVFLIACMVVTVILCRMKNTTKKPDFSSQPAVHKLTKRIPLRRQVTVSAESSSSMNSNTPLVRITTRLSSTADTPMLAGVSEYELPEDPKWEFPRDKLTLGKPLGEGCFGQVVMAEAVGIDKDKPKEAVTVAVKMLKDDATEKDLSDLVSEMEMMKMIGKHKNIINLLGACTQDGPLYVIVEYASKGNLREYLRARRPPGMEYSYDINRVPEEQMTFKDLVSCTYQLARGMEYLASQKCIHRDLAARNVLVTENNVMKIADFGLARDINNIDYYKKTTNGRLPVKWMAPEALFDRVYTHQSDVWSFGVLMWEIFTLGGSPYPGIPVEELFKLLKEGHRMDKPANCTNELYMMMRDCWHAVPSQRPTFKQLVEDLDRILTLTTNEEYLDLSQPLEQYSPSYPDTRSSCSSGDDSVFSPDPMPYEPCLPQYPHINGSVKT
Sequence of human recombinant FGFR3 (P22607 23-806): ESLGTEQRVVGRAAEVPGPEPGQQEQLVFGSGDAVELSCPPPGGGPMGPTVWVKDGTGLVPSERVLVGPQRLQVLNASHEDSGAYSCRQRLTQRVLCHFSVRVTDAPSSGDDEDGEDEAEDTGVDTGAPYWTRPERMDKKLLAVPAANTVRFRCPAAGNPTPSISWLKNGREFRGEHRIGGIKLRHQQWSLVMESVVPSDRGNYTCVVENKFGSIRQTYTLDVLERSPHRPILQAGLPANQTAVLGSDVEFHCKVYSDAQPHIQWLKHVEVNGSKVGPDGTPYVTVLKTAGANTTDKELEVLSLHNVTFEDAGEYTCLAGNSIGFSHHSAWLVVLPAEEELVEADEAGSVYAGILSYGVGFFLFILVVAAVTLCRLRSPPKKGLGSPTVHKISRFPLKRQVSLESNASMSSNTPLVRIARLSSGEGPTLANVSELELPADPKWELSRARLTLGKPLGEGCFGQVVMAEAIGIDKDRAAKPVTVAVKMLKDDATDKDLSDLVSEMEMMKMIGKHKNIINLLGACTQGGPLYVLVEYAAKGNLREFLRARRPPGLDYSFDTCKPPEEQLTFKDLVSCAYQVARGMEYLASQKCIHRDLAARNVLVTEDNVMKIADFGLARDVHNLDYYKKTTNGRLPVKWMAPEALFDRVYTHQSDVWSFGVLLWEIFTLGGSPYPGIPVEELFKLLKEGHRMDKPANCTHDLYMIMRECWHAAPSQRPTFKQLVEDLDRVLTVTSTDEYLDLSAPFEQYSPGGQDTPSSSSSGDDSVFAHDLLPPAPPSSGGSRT
Sequence of human recombinant FGFR1 (P11362 22-822): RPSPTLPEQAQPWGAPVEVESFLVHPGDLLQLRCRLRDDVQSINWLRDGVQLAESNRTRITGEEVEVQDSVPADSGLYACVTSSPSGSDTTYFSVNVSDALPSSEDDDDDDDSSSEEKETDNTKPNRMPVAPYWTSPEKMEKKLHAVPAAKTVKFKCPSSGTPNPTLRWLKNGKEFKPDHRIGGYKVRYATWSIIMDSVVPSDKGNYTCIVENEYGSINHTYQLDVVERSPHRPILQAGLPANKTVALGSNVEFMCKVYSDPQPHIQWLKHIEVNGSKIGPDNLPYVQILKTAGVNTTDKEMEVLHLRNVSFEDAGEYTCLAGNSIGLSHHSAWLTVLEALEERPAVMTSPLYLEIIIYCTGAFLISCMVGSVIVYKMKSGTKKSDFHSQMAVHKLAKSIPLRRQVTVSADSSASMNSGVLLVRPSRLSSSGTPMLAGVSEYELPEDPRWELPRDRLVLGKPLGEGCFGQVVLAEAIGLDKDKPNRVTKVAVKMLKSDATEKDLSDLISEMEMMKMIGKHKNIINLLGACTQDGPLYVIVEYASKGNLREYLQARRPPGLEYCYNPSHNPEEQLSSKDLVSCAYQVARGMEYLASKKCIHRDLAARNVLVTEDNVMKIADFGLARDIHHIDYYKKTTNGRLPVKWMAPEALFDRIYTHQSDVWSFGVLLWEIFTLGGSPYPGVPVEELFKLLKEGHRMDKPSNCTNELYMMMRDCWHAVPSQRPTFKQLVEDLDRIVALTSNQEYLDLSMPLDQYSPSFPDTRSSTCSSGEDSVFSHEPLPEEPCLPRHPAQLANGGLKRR
Sequence of human recombinant FGFR4 (P22455 22-802): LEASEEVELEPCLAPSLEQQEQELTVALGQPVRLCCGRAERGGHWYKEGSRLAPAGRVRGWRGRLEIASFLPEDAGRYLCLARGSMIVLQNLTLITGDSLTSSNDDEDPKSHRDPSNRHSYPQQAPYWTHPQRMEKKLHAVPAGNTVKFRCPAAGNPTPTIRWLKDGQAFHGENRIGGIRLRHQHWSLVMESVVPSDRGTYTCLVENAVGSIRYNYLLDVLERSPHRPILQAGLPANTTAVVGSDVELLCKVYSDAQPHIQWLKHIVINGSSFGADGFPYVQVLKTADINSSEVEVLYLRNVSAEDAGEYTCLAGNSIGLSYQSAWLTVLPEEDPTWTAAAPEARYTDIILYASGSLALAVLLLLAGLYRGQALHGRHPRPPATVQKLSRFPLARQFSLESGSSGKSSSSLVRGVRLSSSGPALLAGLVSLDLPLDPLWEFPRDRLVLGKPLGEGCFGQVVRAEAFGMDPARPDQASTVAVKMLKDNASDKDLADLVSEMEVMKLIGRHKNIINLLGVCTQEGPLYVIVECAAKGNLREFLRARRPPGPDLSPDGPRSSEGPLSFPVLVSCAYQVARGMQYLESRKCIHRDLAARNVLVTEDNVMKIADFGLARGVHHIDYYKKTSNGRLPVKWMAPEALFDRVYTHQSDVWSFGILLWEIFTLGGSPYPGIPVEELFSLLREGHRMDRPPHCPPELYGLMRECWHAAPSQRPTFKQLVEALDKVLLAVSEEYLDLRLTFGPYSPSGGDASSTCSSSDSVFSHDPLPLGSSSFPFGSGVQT

Structure (SMILES)	IC50 (human recombinant FGFR1)	IC50 (SNU-16 cells)	IC50 (human recombinant FGFR2)	IC50 (human recombinant FGFR4)	IC50 (human recombinant FGFR3)
C=CC(=O)Nc1ccc(CCn2c(=O)c(-c3c(Cl)c(OC)cc(OC)c3Cl)cc3cnc(NC4CCN(C)CC4)nc32)cc1 [Example 62, N-(4-(2-(6-(2,6-dichloro-3,5-dimethoxyphenyl)-2-((1-methylpiperidin-4-yl)amino)-7-oxopyrido[2,3-d]pyrimidin-8(7H)-yl)ethyl)phenyl)acrylamide]	0.7 nM	2.1 nM	2 nM	54.1 nM	9.9 nM
C=CC(=O)Nc1ccc(CCn2c(=O)c(-c3c(Cl)c(OC)cc(OC)c3Cl)cc3cnc(NCC(O)CO)nc32)cc1 (stereo not shown) [Example 63, N-(4-(2-(6-(2,6-dichloro-3,5-dimethoxyphenyl)-2-((2,3-dihydroxypropyl)amino)-7-oxopyrido[2,3-d]pyrimidin-8(7H)-yl)ethyl)phenyl)acrylamide]	0.7 nM	3.1 nM	0.9 nM	9.7 nM	3.2 nM
C=CC(=O)Nc1ccc(CCn2c(=O)c(-c3c(Cl)c(OC)cc(OC)c3Cl)cc3cnc(NCC(C)(C)O)nc32)cc1 [Example 64, N-(4-(2-(6-(2,6-dichloro-3,5-dimethoxyphenyl)-2-((2-hydroxy-2-methylpropyl)-amino)-7-oxopyrido[2,3-d]pyrimidin-8(7H)-yl)ethyl)phenyl)acrylamide]	0.5 nM	3.2 nM	2.2 nM	19.9 nM	5.5 nM
C=CC(=O)Nc1ccc(CCn2c(=O)c(-c3c(Cl)c(OC)cc(OC)c3Cl)cc3cnc(NCCO)nc32)cc1 [Example 65, N-(4-(2-(6-(2,6-dichloro-3,5-dimethoxyphenyl)-2-((2-hydroxyethyl)amino)-7-oxopyrido[2,3-d]pyrimidin-8(7H)-yl)ethyl)phenyl)acrylamide]	0.6 nM	3 nM	1.7 nM	13.8 nM	4.6 nM
C=CC(=O)Nc1ccc(CCn2c(=O)c(-c3cc(OC)cc(OC)c3Cl)cc3cnc(NCCN4CCN(CC(C)(C)O)CC4)nc32)cc1 [Example 68, N-(4-(2-(6-(2-chloro-3,5-dimethoxyphenyl)-2-((2-(4-(2-hydroxy-2-methylpropyl)-piperazin-1-yl)ethyl)amino)-7-oxopyrido[2,3-d]pyrimidin-8(7H)-yl)ethyl)phenyl)acrylamide]	0.7 nM	3.1 nM	1.6 nM	53.8 nM	8.1 nM

Now from value to compound:

IC50 (human recombinant FGFR1)	IC50 (SNU-16 cells)	IC50 (human recombinant FGFR2)	IC50 (human recombinant FGFR4)	IC50 (human recombinant FGFR3)	Structure (SMILES)
1 nM	4.9 nM	1.3 nM	95.8 nM	5.9 nM	C=CC(=O)Nc1ccc(CCn2c(=O)c(-c3cc(OC)cc(OC)c3Cl)cc3cnc(NCC4CCN(C)CC4)nc32)cc1 [Example 71, N-(4-(2-(6-(2-chloro-3,5-dimethoxyphenyl)-2-(((1-methylpiperidin-4-yl)methyl)-amino)-7-oxopyrido[2,3-d]pyrimidin-8(7H)-yl)ethyl)phenyl)acrylamide]
0.4 nM	2.2 nM	0.6 nM	14.7 nM	3.3 nM	C=CC(=O)Nc1ccc(CCn2c(=O)c(-c3c(Cl)c(OC)cc(OC)c3Cl)cc3cnc(NCC4CCN(C)CC4)nc32)cc1 [Example 75, N-(4-(2-(6-(2,6-dichloro-3,5-dimethoxyphenyl)-2-(((1-methylpiperidin-4-yl)methyl)-amino)-7-oxopyrido[2,3-d]pyrimidin-8(7H)-yl)ethyl)phenyl)acrylamide]
0.8 nM	7.4 nM	1.6 nM	9.6 nM	6.7 nM	C=CC(=O)Nc1ccc(CCn2c(=O)c(-c3c(Cl)c(OC)cc(OC)c3Cl)cc3cnc(NC(CO)CO)nc32)cc1 [Example 76, N-(4-(2-(6-(2,6-dichloro-3,5-dimethoxyphenyl)-2-((1,3-dihydroxypropan-2-yl)-amino)-7-oxopyrido[2,3-d]pyrimidin-8(7H)-yl)ethyl)phenyl)acrylamide]
